Laboratory results: US12336991B2, “Factor XIIA inhibitors” (UNIVERSITY OF LEEDS, priority 2018, dated 2025)

What was measured:
Assay type in all cases: biochemical
thrombin = biological target: T1, thrombin (Homo sapiens, UniProt P00734); assay: Determination of selectivity: thrombin inhibition, chromogenic substrate GPR assay; conditions: fold selectivity for FXIIa over thrombin
T1 construct: FXa (5 nM) and thrombin (5 nM)
Method in brief: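 Thrombin (5 nM) preincubated with compound 10 min at 37 °C in 50 mM Tris, 137 mM NaCl, pH 7.4, 5% DMSO, then GPR substrate ([…]) added. Absorbance at 405 nm read kinetically for 3 h; IC50 from initial rates, converted to Ki via Ki=IC50/(1+[S]/Km).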

FXIIa = biological target: T2, FXIIa (Homo sapiens, UniProt P00748); assay: Determination of Factor XIIa inhibition, chromogenic substrate S-2302 assay; conditions: human FXIIa alpha
T2 sequence (P00748 373-615 limits assumed): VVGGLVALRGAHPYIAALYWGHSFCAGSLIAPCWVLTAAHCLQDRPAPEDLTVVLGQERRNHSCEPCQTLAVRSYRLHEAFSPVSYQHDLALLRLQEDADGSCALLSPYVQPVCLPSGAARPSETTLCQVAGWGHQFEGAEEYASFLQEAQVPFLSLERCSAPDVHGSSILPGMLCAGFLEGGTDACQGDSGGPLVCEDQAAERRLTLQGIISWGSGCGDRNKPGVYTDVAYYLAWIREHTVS
T2 sequence (P00748 20-372 partner limits assumed): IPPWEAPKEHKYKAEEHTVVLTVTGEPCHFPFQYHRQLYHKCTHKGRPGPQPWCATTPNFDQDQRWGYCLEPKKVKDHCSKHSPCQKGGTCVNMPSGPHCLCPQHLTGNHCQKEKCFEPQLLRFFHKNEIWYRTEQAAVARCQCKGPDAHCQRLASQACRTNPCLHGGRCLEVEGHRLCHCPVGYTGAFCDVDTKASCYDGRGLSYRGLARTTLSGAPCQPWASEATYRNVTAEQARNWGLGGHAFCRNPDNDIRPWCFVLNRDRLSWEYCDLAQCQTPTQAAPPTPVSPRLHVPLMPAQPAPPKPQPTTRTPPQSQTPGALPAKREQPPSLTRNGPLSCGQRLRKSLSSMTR
Method in brief: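 FXIIa (10 nM) preincubated with compound 10 min at 37° C. in 50 mM Tris, 137 mM NaCl pH 7.4, 5% DMSO, top concentration 500 μM, then S-2302 added ([…]). Absorbance at 405 nm read kinetically for 3 h; IC50 from initial rates, converted to Ki by Cheng-Prusoff.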

FXa = FXa (Homo sapiens, UniProt P00742); assay: Determination of selectivity: FXa inhibition, chromogenic substrate S2765 assay; conditions: fold selectivity for FXIIa over FXa
Sequence of FXa (P00742 235-488 limits assumed): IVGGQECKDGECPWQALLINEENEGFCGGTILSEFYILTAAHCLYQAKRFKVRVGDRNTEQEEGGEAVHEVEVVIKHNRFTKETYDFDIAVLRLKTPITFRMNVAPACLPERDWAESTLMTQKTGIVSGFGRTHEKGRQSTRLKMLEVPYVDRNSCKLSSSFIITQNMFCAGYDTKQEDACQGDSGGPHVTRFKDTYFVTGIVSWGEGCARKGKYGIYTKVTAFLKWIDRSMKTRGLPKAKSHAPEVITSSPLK
Sequence of FXa (P00742 41-179 partner limits assumed): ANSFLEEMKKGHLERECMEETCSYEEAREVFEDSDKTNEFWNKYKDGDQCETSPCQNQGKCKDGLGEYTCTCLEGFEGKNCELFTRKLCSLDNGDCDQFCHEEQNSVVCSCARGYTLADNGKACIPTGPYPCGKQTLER
Method in brief: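 Human FXa (5 nM) preincubated with compound (top 500 μM, 5% DMSO) 10 min at 37 °C in 50 mM Tris, 137 mM NaCl pH 7.4, then S2765 ([…]) added; A405 kinetics over 3 h at 37 °C. IC50 from initial rates, converted to Ki via Cheng-Prusoff.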

Thrombin (human)/FXIIa alpha (human) (thrombin)	Ki (FXIIa) [µM]	FXa (human)/FXIIa alpha (human) (FXa)	SMILES
++ (fold selectivity value of 10 to 100)	> 2	∘∘	Cn1nnc2cc(CNC(=O)[C@@H]3C[C@H](NC4CCCCC4)CN3C(=O)[C@H](N)CCc3ccccc3)ccc21 [Example M05203]
++ (fold selectivity value of 10 to 100)	> 2	∘∘	COc1ccc(C[C@@H]2C[C@@H](C(=O)NCc3ccc4c(c3)nnn4C)N(C(=O)[C@H]3CC(c4cncn4C)CN3)C2)cc1 (stereo partly drawn) [Example M05446]
++ (fold selectivity value of 10 to 100)	> 2	∘∘	Cn1ncc2cc(CNC(=O)[C@@H]3C[C@@H](c4ccccc4)CN3C(=O)[C@H](N)CCc3ccccc3)ccc21 [Example M05188]
++ (fold selectivity value of 10 to 100)	0.2 to 2	∘∘	Cn1nnc2cc(CNC(=O)[C@@H]3C[C@@H](Cc4ccc(F)cc4F)CN3C(=O)[C@H]3C[C@@H](c4ccccc4)CN3)ccc21 [Example M05361]
++ (fold selectivity value of 10 to 100)	> 2	∘∘	Cn1nnc2cc(CNC(=O)[C@@H]3C[C@@H](Cc4ccncc4)CN3C(=O)[C@@H](CCC(=O)N3CCCC3)NCC(F)F)ccc21 [Example M05269]
++ (fold selectivity value of 10 to 100)	> 2	∘∘	Cn1nnc2cc(CNC(=O)[C@@H]3CC(Cc4ccnc(F)c4)CN3C(=O)[C@H](N)CCC(=O)N3CCCC3)ccc21 (stereo partly drawn) [Example M05315]
+ (fold selectivity values less than 10)	> 2	∘∘	Cn1nnc2cc(CNC(=O)[C@]3(C)CCCN3C(=O)[C@H](N)CCC(=O)N3CCCC3)ccc21 [Example M05318]

Second part, the molecule before the results:

SMILES	Thrombin (human)/FXIIa alpha (human) (thrombin)	Ki (FXIIa) [µM]	FXa (human)/FXIIa alpha (human) (FXa)
Nc1cc(CNC(=O)[C@@H]2C[C@@](O)(c3ccccc3)CN2C(=O)[C@H](N)CCc2ccccc2)ccn1 [Example M05125]	++ (fold selectivity value of 10 to 100)	0.2 to 2	∘∘
Cn1ncc2cc(CNC(=O)[C@@H]3C[C@@H](Cc4cccnc4)CN3C(=O)[C@H](N)CCC(=O)N3CCCC3)ccc21 [Example M05228]	+++ (fold selectivity values greater than 100)	0.2 to 2	∘∘∘
COc1ccc(C[C@@H]2C[C@@H](C(=O)NCc3cc4cnccc4o3)N(C(=O)[C@H](N)CCC(=O)N3CCCC3)C2)cc1 [Example M05404]	+++ (fold selectivity values greater than 100)	< 0.2	∘∘∘
COc1ccc(C[C@@H]2C[C@@H](C(=O)NCc3ccc4c(c3)nnn4C)N(C(=O)[C@H]3C[C@@H](c4cccnc4)CN3)C2)cc1 [Example M05354]	+++ (fold selectivity values greater than 100)	0.2 to 2	∘∘∘
Cn1nnc2cc(CNC(=O)[C@@H]3C[C@H](NCc4ccccc4)CN3C(=O)[C@H](N)CCc3ccccc3)ccc21 [Example M05158]	++ (fold selectivity value of 10 to 100)	> 2	∘∘
Cn1nnc2cc(CNC(=O)[C@@H]3C[C@@H](Cc4ccc(-c5cn[nH]c5)cc4)CN3C(=O)[C@H]3C[C@@H](c4ccccc4)CN3)ccc21 [Example M05364]	++ (fold selectivity value of 10 to 100)	> 2	∘∘
Cn1nnc2cc(CNC(=O)[C@@H]3C[C@@H](Cc4cccnc4)CN3C(=O)[C@H]3C[C@@H](c4ccccc4)CN3)ccc21 [Example M05338]	++ (fold selectivity value of 10 to 100)	> 2	∘∘
Cn1nnc2cc(CNC(=O)[C@@H]3C[C@@H](Cc4ccccc4Cl)CN3C(=O)[C@H]3C[C@@H](c4ccccc4)CN3)ccc21 [Example M05333]	++ (fold selectivity value of 10 to 100)	> 2	∘
COc1ccc(C[C@@H]2C[C@@H](C(=O)NCc3cc4cnccc4[nH]3)N(C(=O)C3NCCc4cc(OC)ccc43)C2)cc1 (single isomer, unassigned) [Example M00961]	+++ (fold selectivity values greater than 100)	< 0.2	∘∘∘
NCc1ncc(CNC(=O)[C@@H]2CCCN2C(=O)[C@H](N)CCc2ccccc2)s1 [Example M05099]	+ (fold selectivity values less than 10)	> 2	∘∘
Cn1nnc2cc(CNC(=O)[C@@H]3C[C@@H](Cc4ccccc4C(F)(F)F)CN3C(=O)[C@H]3C[C@@H](c4ccccc4)CN3)ccc21 [Example M05357]	++ (fold selectivity value of 10 to 100)	> 2	∘∘
COc1ccc(C[C@@H]2C[C@@H](C(=O)NCc3ccc4c(c3)c(C)nn4C)N(C(=O)[C@H](N)CCC(=O)N3CCCC3)C2)cc1 [Example M05447]	+++ (fold selectivity values greater than 100)	0.2 to 2	∘∘∘
Cn1nnc2cc(CNC(=O)[C@@H]3C[C@H](NCc4cccc(C(F)(F)F)c4)CN3C(=O)[C@H](N)CCc3ccccc3)ccc21 [Example M05159]	++ (fold selectivity value of 10 to 100)	> 2	∘∘
NCc1ccc(CNC(=O)[C@@H]2CCCN2C(=O)[C@H](N)CCC(=O)N2CCC3CC32)cc1 (stereo partly drawn) [Example M00929]	+ (fold selectivity values less than 10)	> 2	∘∘
COc1ccc(C[C@@H]2C[C@@H](C(=O)NCc3cccs3)N(C(=O)[C@H](N)CCC(=O)N3CCCC3)C2)cc1 [Example M00972]	++ (fold selectivity value of 10 to 100)	0.2 to 2	∘∘
CC(C)Oc1ccc(CC2C[C@@H](C(=O)NCc3ccc4c(c3)nnn4C)N(C(=O)[C@H]3C[C@@H](c4ccccc4)CN3)C2)cc1 (stereo partly drawn) [Example M05349]	++ (fold selectivity value of 10 to 100)	0.2 to 2	∘∘
Cn1nnc2cc(CNC(=O)[C@@H]3C[C@@H](Cc4ccncc4)CN3C(=O)[C@@H](CCC(=O)N3CCCC3)NS(C)(=O)=O)ccc21 [Example M05268]	+++ (fold selectivity values greater than 100)	> 2	∘∘∘
COc1ccc(C[C@@H]2C[C@@H](C(=O)NCc3cc4cnccc4[nH]3)N(C(=O)[C@H]3C[C@@H](c4cnn(C)c4)CN3)C2)cc1 [Example M00959]	+++ (fold selectivity values greater than 100)	< 0.2	∘∘∘
Cc1cccc(C[C@@H]2C[C@@H](C(=O)NCc3ccc4c(c3)nnn4C)N(C(=O)[C@H]3C[C@@H](c4ccccc4)CN3)C2)c1 [Example M05359]	++ (fold selectivity value of 10 to 100)	0.2 to 2	∘∘
Cn1nnc2cc(CNC(=O)[C@@H]3C[C@@](O)(c4ccc(F)c(F)c4)CN3C(=O)[C@H](N)CCc3ccccc3)ccc21 [Example M05128]	++ (fold selectivity value of 10 to 100)	> 2	∘∘
COc1ccc(CC2C[C@@H](C(=O)NCc3ccc4c(c3)nnn4C)N(C(=O)[C@H]3C[C@@H](c4ccccc4)CN3)C2)cc1OC (stereo partly drawn) [Example M05348]	+++ (fold selectivity values greater than 100)	0.2 to 2	∘∘∘
Cc1nn(C)c2ccc(CNC(=O)[C@@H]3C[C@@H](Cc4ccncc4)CN3C(=O)[C@H](N)CCC(=O)N3CCCC3)cc12 [Example M05278]	++ (fold selectivity value of 10 to 100)	0.2 to 2	∘∘∘
Cn1nnc2cc(CNC(=O)[C@@H]3CC(Cc4ccc(C(F)(F)F)cc4)CN3C(=O)[C@H](N)CCC(=O)N3CCCC3)ccc21 (stereo partly drawn) [Example M05309]	+++ (fold selectivity values greater than 100)	0.2 to 2	∘∘∘
